Assay results: PMC6706930, “A novel oral micellar fenretinide formulation with enhanced bioavailability and antitumour activity against multiple tumours from cancer stem cells” (Journal of Experimental & Clinical Cancer Research : CR, 2019)
Several values for one entry are separate records, joined by “and”; a condition that tells them apart may be missing. Equal entries are not always repeated. Where two headings read alike, the source gives them in different places. Each block holds one compound with its values, some of them ahead of it.

Assay: Tumour pharmacokinetics: fenretinide and metabolite levels in plasma and tumours of xenografted mice
Format: in vivo
Settings: for concentration at 3 h: female, mouse, oral
Description: The determination of fenretinide in plasma of mice and the others biological samples was determined according to a method specifically developed and validated for the quantification of fenretinide (4-HPR) based on liquid chromatography-tandem mass spectrometry (LC–MS/MS) (manuscript in preparation). The procedure of sample preparation and quantification can be summarized as follows. 30 μL aliquot of plasma was added with 3 ng of deuterated internal standard (^2H4 4-HPR), deproteinized by mean of 90 μL of acetonitrile and centrifuged 5 min at 13200 rpm at room temperature. The supernatant was recovered and 5 μL injected into a HPLC system (Series 200, Perkin Elmer, MA, USA). Chromatographic separation was achieved on a Gemini-C18 column (50 mm × 2.0 mm, 5 μm particle size; Phenomenex Inc., Torrance, CA, USA) at 32 °C protected with a Security Guard™ ULTRA cartridges C18. The detection obtained by Mass spectrometric detection was carried out on a triple quadrupole API 4000 mass spectrometer (Sciex, MA, USA) equipped with atmospheric pressure chemical ionization source (APCI) operating in positive ion mode monitoring the transitions 392.3 > 283.2 m/z for 4-HPR and 396.3 > 283.2 m/z for the deuterated internal standard. To assay study samples, a calibration curve of six points (range: 1.0–500.00 ng/mL) was prepared in control mouse plasma assessing the precision and the accuracy of the run analyzing at the same time a set of freshly prepared quality controls samples. The Limit Of Quantification of the method was 1 ng/mL in plasma and urine and 50 ng/g in faeces.
Cell suspensions of lung and colon cancer and melanoma CSC lines were mixed 1:1 with Growth Factor-Reduced Matrigel (Beckton Dickinsons) and injected subcutaneously in both flanks of 5-week-old female NOD-SCID (non-obese diabetic/severe combined immunodeficiency) mice in the case of colon and melanoma or NSG (non-obese diabetic/severe combined immunodeficiency gamma chain deficient) mice in the case of lung (Charles River, Wilmington, MA, USA). For drug treatment, when tumours reached a mean diameter of 0.5 cm, groups of 6 mice were randomized into 3 groups and treated with vehicle, with Bio-nFeR (50,100 or 150 mg/kg as described) freshly dissolved in sterile water or with the standard formulation NCI-FeR that reproduce NCI capsule (50 or 100 mg/Kg). Treatments were administered by oral gavage 5 days on and 2 days off for 3 weeks. Tumours were measured twice a week using a caliper, and mice were monitored for signs of drug-induced toxicity and weighed regularly. At the end of treatments, in a study paralleling the assessment of antitumour activity, tumours and blood samples were collected for pharmacokinetic and molecular studies 3 hours after the last drug administration. Collection of blood, plasma separation and storing were as previously described. Immediately after blood collection mice were sacrificed by cervical dislocation, tumours removed rapidly frozen in liquid nitrogen and stored in small pieces at − 80 °C for subsequent fenretinide determination, protein and lipid analyses. All procedures were performed with the approval of the Ethics Committee for Animal Experimentation.

[1] = colon cancer xenograft mice, Bio-nFeR 150 mg/kg, Suppl. Table 5
[2] = colon cancer xenograft, Bio-nFeR 150 mg/kg, Suppl. Table 5
[3] = lung cancer xenograft mice, Bio-nFeR 100 mg/kg, Suppl. Table 5
[4] = lung cancer xenograft, Bio-nFeR 100 mg/kg, Suppl. Table 5
[5] = melanoma xenograft mice, Bio-nFeR 100 mg/kg, Suppl. Table 5
[6] = melanoma xenograft, Bio-nFeR 100 mg/kg, Suppl. Table 5

- Mean concentration (±sd), Plasma [1]: 790 (261) ng/ml
- Mean concentration (±sd), Tumor [2]: 1090 (503) ng/ml
- Mean concentration (±sd), Plasma [3]: 394 (68) ng/ml
- Mean concentration (±sd), Tumor [4]: 2282 (598) ng/ml
- Mean concentration (±sd), Plasma [5]: 190 (32) ng/ml
- Mean concentration (±sd), Tumor [6]: 707 (476) ng/ml
Structure (SMILES): COc1ccc(NC(=O)\C=C(C)/C=C/C=C(C)\C=C\C2=C(C)CCCC2(C)C)cc1 [MPR]

- concentration at 3 h (NOD-SCID, colon cancer xenograft, Bio-nFeR 150 mg/kg, tumour density assumed =1, read-out: Mean 4-HPR concentration: Tumor): 4.8 µM
- concentration at 3 h (NOD-SCID, melanoma xenograft, Bio-nFeR 100 mg/kg, tumour density assumed =1, read-out: Mean 4-HPR concentration: Tumor): 5.4 µM
- concentration at 3 h (NOD-SCID, plasma, colon cancer xenograft mice, Bio-nFeR 150 mg/kg, Suppl. Table 5, read-out: Mean concentration (±sd), Plasma): 4990 ng/mL
- concentration at 3 h (NOD-SCID, plasma, colon cancer xenograft mice, Bio-nFeR 150 mg/kg, read-out: Mean 4-HPR concentration: Plasma): 12.1 µM
- concentration at 3 h (NOD-SCID, plasma, melanoma xenograft mice, Bio-nFeR 100 mg/kg, Suppl. Table 5, read-out: Mean concentration (±sd), Plasma): 1710 ng/mL
- concentration at 3 h (NOD-SCID, plasma, melanoma xenograft mice, Bio-nFeR 100 mg/kg, read-out: Mean 4-HPR concentration: Plasma): 4.7 µM
- concentration at 3 h (NOD-SCID, tumour, colon cancer xenograft, Bio-nFeR 150 mg/kg, Suppl. Table 5, read-out: Mean concentration (±sd), Tumor): 1880 ng/mL
- concentration at 3 h (NOD-SCID, tumour, colon cancer xenograft, Bio-nFeR 150 mg/kg, read-out: Mean 4-HPR concentration ± (sd): Tumor): 1880 ng/g
- concentration at 3 h (NOD-SCID, tumour, melanoma xenograft, Bio-nFeR 100 mg/kg, Suppl. Table 5, read-out: Mean concentration (±sd), Tumor): 2130 ng/mL
- concentration at 3 h (NOD-SCID, tumour, melanoma xenograft, Bio-nFeR 100 mg/kg, read-out: Mean 4-HPR concentration ± (sd): Tumor): 2130 ng/g
- concentration at 3 h (NSG, lung cancer xenograft, Bio-nFeR 100 mg/kg, tumour density assumed =1, read-out: Mean 4-HPR concentration: Tumor): 5.7 µM
- concentration at 3 h (NSG, plasma, lung cancer xenograft mice, Bio-nFeR 100 mg/kg, Suppl. Table 5, read-out: Mean concentration (±sd), Plasma): 3450 ng/mL
- concentration at 3 h (NSG, plasma, lung cancer xenograft mice, Bio-nFeR 100 mg/kg, read-out: Mean 4-HPR concentration: Plasma): 8.8 µM
- concentration at 3 h (NSG, tumour, lung cancer xenograft, Bio-nFeR 100 mg/kg, Suppl. Table 5, read-out: Mean concentration (±sd), Tumor): 2230 ng/mL
- concentration at 3 h (NSG, tumour, lung cancer xenograft, Bio-nFeR 100 mg/kg, read-out: Mean 4-HPR concentration ± (sd): Tumor): 2230 ng/g
Structure (SMILES): CC1=C(/C=C/C(C)=C/C=C/C(C)=C/C(=O)Nc2ccc(O)cc2)C(C)(C)CCC1 [4-HPR, 4-hydroxy (phenyl)retinamide, reference compound]
- concentration at 3 h (NOD-SCID (colon, melanoma), NSG (lung), tumour, both drug doses analyzed (Bio-nFeR 100 and 150 mg/kg), three xenograft models, read-out: intra-tumour concentration): 1880 ng/g to 2230 ng/g and 4.8 µM to 5.7 µM

- Mean concentration (±sd), Plasma [1]: 3519 (1319) ng/ml
- Mean concentration (±sd), Tumor [2]: 2514 (189) ng/ml
- Mean concentration (±sd), Plasma [3]: 2142 (374) ng/ml
- Mean concentration (±sd), Tumor [4]: 2028 (150) ng/ml
- Mean concentration (±sd), Plasma [5]: 1226 (220) ng/ml
- Mean concentration (±sd), Tumor [6]: 2323(134) ng/ml
Structure (SMILES): CC1=C(/C=C/C(C)=C/C=C/C(C)=C/C(=O)Nc2ccc(O)cc2)C(C)(C)CCC1=O [4-oxo-4-HPR]
